# What was measured:
# Test in all cases: combination Emax (second highest fraction inhibited in the dose matrix, 72 h); higher = more inhibition; extreme values may be limits of the assay
# [1] = test system: HAL-01 (B-Lymphoblastic Leukemia)
# How it was run: (§1)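 Cell lines grown in DMEM/F12 or RPMI with 10% FBS were plated in 1536-well plates and held 24 hours at 37°C, 5% CO2 before 72 hours of exposure to two-drug dose matrices, with DMSO typically at 0.2%. CellTiter-Glo 2.0 luminescence gave viability, which was converted to inhibition. Vehicle wells were set to 0 and blank wells to 1. Combination Emax is the second-highest inhibition in the matrix, and Bliss excess is the observed combination effect minus the expected EA + EB − EA·EB, where EA and EB are the single-agent effects.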
# [2] = test system: Mo-T (Other Blood Carcinomas)
# How it was run: as §1
# SK-N-AS (Neuroblastoma) = test system: SK-N-AS (Neuroblastoma)
# How it was run: as §1
# EW-1 (Ewing's Sarcoma) = test system: EW-1 (Ewing's Sarcoma)
# How it was run: as §1
smiles,measurement,setting,value
"Cc1c2c(nn1C)CSCc1cc(n(C)n1)CSc1cc(c3ccccc3c1)OCCCc1c(C(=O)O)n(C)c3c-2c(Cl)ccc13 [AZD5991] + CS(=O)(=O)CCNCc1ccc(-c2ccc3ncnc(Nc4ccc(OCc5cccc(F)c5)c(Cl)c4)c3c2)o1 [Lapatinib] (first compound max 1 µM, 7x7, partner max 10 µM)",combination Emax,[1],0.965
same,combination Emax,[2],0.371
same,combination Emax,SK-N-AS (Neuroblastoma),0.395
"O=C(c1cc(Cc2n[nH]c(=O)c3ccccc23)ccc1F)N1CCN(C(=O)C2CC2)CC1 [Olaparib] + CC1(C)CCC(CN2CCN(c3ccc(C(=O)NS(=O)(=O)c4ccc(NCC5CCOCC5)c([N+](=O)[O-])c4)c(Oc4cnc5[nH]ccc5c4)c3)CC2)=C(c2ccc(Cl)cc2)C1 [Venetoclax] (first compound max 10 µM, 7x7, partner max 1 µM)",combination Emax,[1],0.926
same,combination Emax,[2],0.186
same,combination Emax,SK-N-AS (Neuroblastoma),0.106
"O=C(c1cc(Cc2n[nH]c(=O)c3ccccc23)ccc1F)N1CCN(C(=O)C2CC2)CC1 [Olaparib] + COc1nnc2ccc(N3CCC(c4ccc(OCCN5CCN(C)C(=O)[C@H]5C)cc4)CC3)nn12 [AZD5153] (first compound max 10 µM, 7x7, partner max 1 µM)",combination Emax,[1],0.801
same,combination Emax,[2],0.59
same,combination Emax,SK-N-AS (Neuroblastoma),0.326
"CN(C)CCCOc1ccc(-c2ccc3ncc4c(c3c2)n(C2CCOCC2)c(=O)n4C)cn1 [AZD0156] + O=C(c1cc(Cc2n[nH]c(=O)c3ccccc23)ccc1F)N1CCN(C(=O)C2CC2)CC1 [Olaparib] (first compound max 3 µM, partner max 3 µM)",combination Emax,[1],0.563
same,combination Emax,EW-1 (Ewing's Sarcoma),0.684
same,combination Emax,[2],0.402
same,combination Emax,SK-N-AS (Neuroblastoma),0.169
"CN(C)CCCOc1ccc(-c2ccc3ncc4c(c3c2)n(C2CCOCC2)c(=O)n4C)cn1 [AZD0156] + CCN(CCO)CCCOc1ccc2c(Nc3cc(CC(=O)Nc4cccc(F)c4)[nH]n3)ncnc2c1 [AZD2811] (first compound max 1 µM, 7x7, partner max 1 µM)",combination Emax,[1],0.435
same,combination Emax,EW-1 (Ewing's Sarcoma),0.301
same,combination Emax,[2],0.137
same,combination Emax,SK-N-AS (Neuroblastoma),0.183
"Cn1cnc2c(F)c(Nc3ccc(Br)cc3Cl)c(C(=O)NOCCO)cc21 [Selumetinib] + C[C@@H]1COCCN1C2=NC(=NC(=C2)C3(CC3)[S@](=N)(=O)C)C4=C5C=CNC5=NC=C4 [AZD6738] (first compound max 10 µM, 7x7, partner max 10 µM)",combination Emax,[1],0.976
same,combination Emax,EW-1 (Ewing's Sarcoma),0.892
same,combination Emax,[2],0.362
same,combination Emax,SK-N-AS (Neuroblastoma),0.817
"C[C@@H](Nc1cc(F)cc(F)c1)c1cc(C(=O)N(C)C)cc2c(=O)cc(N3CCOCC3)oc12 [AZD8186] + CC(=O)c1c(C)c2cnc(Nc3ccc(N4CCNCC4)cn3)nc2n(C2CCCC2)c1=O [Palbociclib] (first compound max 10 µM, 7x7, partner max 10 µM)",combination Emax,[1],0.793
same,combination Emax,[2],0.383
same,combination Emax,SK-N-AS (Neuroblastoma),0.281
"C=CCn1c(=O)c2cnc(Nc3ccc(N4CCN(C)CC4)cc3)nc2n1-c1cccc(C(C)(C)O)n1 [AZD1775] + C1CN(CCC1(C(=O)N[C@@H](CCO)C2=CC=C(C=C2)Cl)N)C3=NC=NC4=C3C=CN4 [Capivasertib] (first compound max 3 µM, partner max 3 µM)",combination Emax,[1],0.977
same,combination Emax,EW-1 (Ewing's Sarcoma),0.963
same,combination Emax,[2],0.894
same,combination Emax,SK-N-AS (Neuroblastoma),0.766
"C[C@@H](Oc1cc(-c2cnn(C3CCNCC3)c2)cnc1N)c1c(Cl)ccc(F)c1Cl [Crizotinib] + Cn1cnc2c(F)c(Nc3ccc(Br)cc3Cl)c(C(=O)NOCCO)cc21 [Selumetinib] (first compound max 10 µM, 7x7, partner max 10 µM)",combination Emax,[1],0.991
same,combination Emax,[2],0.466
same,combination Emax,SK-N-AS (Neuroblastoma),0.585
"CN(CCO)CC[C@H](CSc1ccccc1)Nc1ccc(S(=O)(=O)NC(=O)c2ccc(N3CCC([C@@H](O)c4ccccc4-c4ccc(Cl)cc4)CC3)cc2)cc1S(=O)(=O)C(F)(F)F [AZD4320] + CS(=O)(=O)CCNCc1ccc(-c2ccc3ncnc(Nc4ccc(OCc5cccc(F)c5)c(Cl)c4)c3c2)o1 [Lapatinib] (first compound max 1 µM, 7x7, partner max 10 µM)",combination Emax,[1],1
same,combination Emax,[2],0.959
same,combination Emax,SK-N-AS (Neuroblastoma),0.197
"Cc1nc(-c2cn3c(n2)-c2ccc(-c4cnn(C(C)(C)C(N)=O)c4)cc2OCC3)n(C(C)C)n1 [Taselisib] + O=C(Nc1ccc2[nH]nc(-c3ccncc3)c2c1)[C@@H]1CCN(CC(=O)N2CCN(c3ccc(-c4ncccn4)cc3)CC2)C1 [SCH772984] (first compound max 10 µM, 7x7, partner max 5 µM)",combination Emax,[1],0.78
same,combination Emax,[2],0.477
same,combination Emax,SK-N-AS (Neuroblastoma),0.494
"C=CCn1c(=O)c2cnc(Nc3ccc(N4CCN(C)CC4)cc3)nc2n1-c1cccc(C(C)(C)O)n1 [AZD1775] + CCc1c2c(nc3ccc(O)cc13)-c1cc3c(c(=O)n1C2)COC(=O)[C@]3(O)CC [SN-38] (first compound max 1 µM, partner max 0.3 µM)",combination Emax,[1],1
same,combination Emax,[2],0.817
same,combination Emax,SK-N-AS (Neuroblastoma),0.844
"CC1(C)CCC(CN2CCN(c3ccc(C(=O)NS(=O)(=O)c4ccc(NCC5CCOCC5)c([N+](=O)[O-])c4)c(Oc4cnc5[nH]ccc5c4)c3)CC2)=C(c2ccc(Cl)cc2)C1 [Venetoclax] + CS(=O)(=O)CCNCc1ccc(-c2ccc3ncnc(Nc4ccc(OCc5cccc(F)c5)c(Cl)c4)c3c2)o1 [Lapatinib] (first compound max 1 µM, 7x7, partner max 10 µM)",combination Emax,[1],0.968
same,combination Emax,[2],0.33
same,combination Emax,SK-N-AS (Neuroblastoma),0.118
"CS(=O)(=O)CCNCc1ccc(-c2ccc3ncnc(Nc4ccc(OCc5cccc(F)c5)c(Cl)c4)c3c2)o1 [Lapatinib] + Cn1cnc2c(F)c(Nc3ccc(Br)cc3Cl)c(C(=O)NOCCO)cc21 [Selumetinib] (first compound max 10 µM, 7x7, partner max 10 µM)",combination Emax,[1],0.516
same,combination Emax,[2],0.477
same,combination Emax,SK-N-AS (Neuroblastoma),0.441
"Cc1c2c(nn1C)CSCc1cc(n(C)n1)CSc1cc(c3ccccc3c1)OCCCc1c(C(=O)O)n(C)c3c-2c(Cl)ccc13 [AZD5991] + CC(=O)O[C@H]1C(=O)[C@@]2(C)[C@H]([C@H](OC(=O)c3ccccc3)[C@]3(O)C[C@H](OC(=O)[C@H](O)[C@@H](NC(=O)c4ccccc4)c4ccccc4)C(C)=C1C3(C)C)[C@]1(OC(C)=O)CO[C@@H]1C[C@@H]2O [Paclitaxel] (first compound max 1 µM, 7x7, partner max 3 µM)",combination Emax,[1],0.99
same,combination Emax,[2],0.658
same,combination Emax,SK-N-AS (Neuroblastoma),0.83
"C=CCn1c(=O)c2cnc(Nc3ccc(N4CCN(C)CC4)cc3)nc2n1-c1cccc(C(C)(C)O)n1 [AZD1775] + Nc1ccn([C@@H]2O[C@H](CO)[C@@H](O)C2(F)F)c(=O)n1 [Gemcitabine] (first compound max 1 µM, partner max 0.3 µM)",combination Emax,[1],1
same,combination Emax,[2],0.766
same,combination Emax,SK-N-AS (Neuroblastoma),0.704
"CS(=O)(=O)CCNCc1ccc(-c2ccc3ncnc(Nc4ccc(OCc5cccc(F)c5)c(Cl)c4)c3c2)o1 [Lapatinib] + NC1(c2ccc(-c3nc4ccn5c(=O)[nH]nc5c4cc3-c3ccccc3)cc2)CCC1 [MK-2206] (first compound max 10 µM, 7x7, partner max 10 µM)",combination Emax,[1],0.951
same,combination Emax,[2],0.948
same,combination Emax,SK-N-AS (Neuroblastoma),0.16
"O=C(c1cc(Cc2n[nH]c(=O)c3ccccc23)ccc1F)N1CCN(C(=O)C2CC2)CC1 [Olaparib] + CN(CC[C@H](CSC1=CC=CC=C1)NC2=C(C=C(C=C2)S(=O)(=O)NC(=O)C3=CC=C(C=C3)N4CCC(CC4)[C@H](C5=CC=CC=C5C6=CC=C(C=C6)Cl)O)S(=O)(=O)C(F)(F)F)CCO [AZD4320] (first compound max 10 µM, 7x7, partner max 1 µM)",combination Emax,[1],0.65
same,combination Emax,[2],0.844
same,combination Emax,SK-N-AS (Neuroblastoma),0.112
"C[C@@H]1COCCN1c1cc(C2([S@](C)(=N)=O)CC2)nc(-c2ccnc3[nH]ccc23)n1 [AZD6738] + Nc1ccn([C@@H]2O[C@H](CO)[C@@H](O)C2(F)F)c(=O)n1 [Gemcitabine] (first compound max 10 µM, 7x7, partner max 0.3 µM)",combination Emax,[1],1
same,combination Emax,[2],0.812
same,combination Emax,SK-N-AS (Neuroblastoma),0.801
"C[C@@H](Nc1cc(F)cc(F)c1)c1cc(C(=O)N(C)C)cc2c(=O)cc(N3CCOCC3)oc12 [AZD8186] + C1CN(CCC1(C(=O)N[C@@H](CCO)C2=CC=C(C=C2)Cl)N)C3=NC=NC4=C3C=CN4 [AZD5363] (first compound max 10 µM, 7x7, partner max 10 µM)",combination Emax,[1],0.623
same,combination Emax,[2],0.347
same,combination Emax,SK-N-AS (Neuroblastoma),0.135
"C[C@@H]1COCCN1c1cc(C2([S@](C)(=N)=O)CC2)nc(-c2ccnc3[nH]ccc23)n1 [AZD6738] + C1CC(C1)(C(=O)[O-])C(=O)[O-].N.N.[Pt+2] [Carboplatin] (first compound max 10 µM, 7x7, partner max 10 µM)",combination Emax,[1],0.963
same,combination Emax,[2],0.366
same,combination Emax,SK-N-AS (Neuroblastoma),0.69
"Cc1c2c(nn1C)CSCc1cc(n(C)n1)CSc1cc(c3ccccc3c1)OCCCc1c(C(=O)O)n(C)c3c-2c(Cl)ccc13 [AZD5991] + Nc1ccn([C@@H]2O[C@H](CO)[C@@H](O)C2(F)F)c(=O)n1 [Gemcitabine] (first compound max 1 µM, 7x7, partner max 0.3 µM)",combination Emax,[1],1
same,combination Emax,[2],0.685
same,combination Emax,SK-N-AS (Neuroblastoma),0.717
"C[C@@H](Oc1cc(-c2cnn(C3CCNCC3)c2)cnc1N)c1c(Cl)ccc(F)c1Cl [Crizotinib] + CC1=C(C(=CC=C1)Cl)NC(=O)C2=CN=C(S2)NC3=CC(=NC(=N3)C)N4CCN(CC4)CCO [Dasatinib] (first compound max 10 µM, 7x7, partner max 2 µM)",combination Emax,[1],0.961
same,combination Emax,[2],0.383
same,combination Emax,SK-N-AS (Neuroblastoma),0.491
"O=C(c1cc(Cc2n[nH]c(=O)c3ccccc23)ccc1F)N1CCN(C(=O)C2CC2)CC1 [Olaparib] + Cc1c2c(nn1C)CSCc1cc(n(C)n1)CSc1cc(c3ccccc3c1)OCCCc1c(C(=O)O)n(C)c3c-2c(Cl)ccc13 [AZD5991] (first compound max 10 µM, 7x7, partner max 1 µM)",combination Emax,[1],0.269
same,combination Emax,[2],0.0919
same,combination Emax,SK-N-AS (Neuroblastoma),0.258
"C=CCn1c(=O)c2cnc(Nc3ccc(N4CCN(C)CC4)cc3)nc2n1-c1cccc(C(C)(C)O)n1 [AZD1775] + C[C@@H]1COCCN1C2=NC(=NC(=C2)C3(CC3)[S@](=N)(=O)C)C4=C5C=CNC5=NC=C4 [AZD6738] (first compound max 1 µM, partner max 10 µM)",combination Emax,[1],1
same,combination Emax,EW-1 (Ewing's Sarcoma),0.935
same,combination Emax,[2],0.61

# Source: the supplement of paper PMC11061612
